Columns and labels:
[1] = system: TNFα expression in Raw264.7 macrophages; assay: PAMP induced TNFα expression in Raw264.7 macrophages; format: cell-based, mouse; conditions: flagellin 50 ng/ml
DSS mediated colitis = conditions: intracolonic exogenous peptide; Tai et al. 2007; cited from earlier work
[2] = system: TNFα expression in Raw264.7 macrophages; assay: PAMP induced TNFα expression in Raw264.7 macrophages; format: cell-based, mouse
Description: To identify the anti-inflammatory mechanism of cathelicidin, human PBMCs and mouse macrophages to were exposed to PAMP signals (LPS and E. coli DNA) in the presence of cathelicidin LL-37 or mCRAMP (1-10 μM).

[3] = system: Akt and ERK phosphorylation in Raw 264.7 macrophages; assay: LPS induced Akt and ERK phosphorylation in Raw 264.7 macrophages; format: cell-based, mouse; conditions: mCRAMP 10 μM; 30 minutes
Description: […]. LPS induced TNFα expression is Akt dependent. […] All experiments are representative of 3 independent experiments.

TNBS acute colitis = assay: TNBS treated acute colitis in mice, intracolonic mCRAMP; format: in vivo; conditions: for colonic 16S expression: intracolonic
Description: FIG. 20A is an illustration of TNBS experimental plan. […] Experiments included n=6 mice per group.
FIGS. 21B and 21C show colonic Camp mRNA expression of mice. […] There was no significant difference in 16S expression among wild-type and Camp−/− mice. n=6 mice per group.

[4] = system: TNBS mediated chronic colitis; assay: TNBS mediated chronic colitis in mice, intracolonic mCRAMP; format: in vivo; conditions: for colonic collagen deposition / TNBS induced colonic TNFα protein expression / colonic colla2 mRNA: intracolonic
Description: FIG. 1A is an illustration of the experimental plan of TNBS mediated chronic colitis. Wild-type and […] mice were injected with TNBS solution (0.5-1 mg per 20 g mice) in 30% ethanol or 30% ethanol only (vehicle control) under transient isoflurane anesthesia. […] All ethanol treated groups had approximately 20% body weight gain. […] Results are representative of n=6 mice per group.
Collagen was stained in blue. Collagen deposited in mucosal and submucosal layer of TNBS treated wild-type mice was reduced by CRAMP treatment. […] Intracolonic treatment of mCRAMP reduced colonic colla2 mRNA and collagen deposition in both WT (p=0.0364) and Camp^−/− (p=0.04) mice. Results are representative of n=6 mice per group.
Fibroblasts accumulated in the mucosal and submucosal locations as collagen deposition. […] Three different locations (3 separate images) per sample were counted. […] Cell migration was not affected by LL-37 (0-10 μM). Results are representative of 3 independent experiments.

Substance: mCRAMP
- flagellin induced TNFα expression [1]: no inhibitory effect
- DSS mediated colitis (DSS mediated colitis): ameliorates DSS mediated colitis
- LPS induced TNF mRNA expression ([2]; mCRAMP 10 μM, 6 and 16 hours): did not alter
- LPS induced TNFα protein expression in conditioned media ([2]; mCRAMP 10 μM, LPS 0.1 μg/ml, 16 hours): significantly reduced
- E. coli DNA induced TNFα expression ([2]; mCRAMP 1-10 μM, E. coli DNA 0.5 μg/ml, 16 hours): no inhibitory effect
- LPS induced Akt phosphorylation [3]: significantly suppressed
- LPS induced ERK phosphorylation [3]: significantly suppressed
- colonic TNFα levels (TNBS acute colitis; Camp−/− mice): significantly reduced colonic TNFα levels
- colonic 16S expression (TNBS acute colitis; Camp−/− mice): significantly reduced colonic 16S expression
- histological damage (histological score) (TNBS acute colitis; Camp−/− mice, p=0.0484): significantly reduced histological damage
- colonic TNFα levels (TNBS acute colitis; wild-type mice): significantly reduced colonic TNFα levels
- colonic 16S expression (TNBS acute colitis; wild-type mice): significantly reduced colonic 16S expression
- histological damage (histological score) (TNBS acute colitis; wild-type mice, p=0.0006): significantly reduced histological damage
- colonic collagen deposition ([4]; Camp−/− mice): reduced
- TNBS induced colonic TNFα protein expression ([4]; Camp−/− mice, p=0.0054): significantly reduced TNBS induced TNFα protein expression
- colonic colla2 mRNA ([4]; Camp−/− mice, p=0.04): reduced
- histology score (H&E) ([4]; Camp−/− mice, p=0.04): significantly reduced histology score
- percent of body weight change (week 0 to week 7) ([4]; TNBS treated Camp−/− mice): significant body weight loss regardless of mCRAMP treatment
- collagen deposited in mucosal and submucosal layer (Masson Trichrome staining) ([4]; TNBS treated wild-type mice): reduced
- percent of body weight change (week 0 to week 7) ([4]; TNBS treated wild-type mice, p=0.01): restored the body weight gain
- colonic vimentin mRNA expression ([4]; WT and Camp−/− mice): did not affect
- colonic α-SMA mRNA expression ([4]; WT and Camp−/− mice): did not affect
- colonic collagen deposition ([4]; WT mice): reduced
- TNBS induced colonic TNFα protein expression ([4]; WT mice, p=0.0127): significantly reduced TNBS induced TNFα protein expression
- colonic colla2 mRNA ([4]; WT mice, p=0.0364): reduced
- fibroblast accumulation (number of fibroblasts per field, vimentin immunohistochemistry) ([4]; chronic TNBS colitis): not affected
- TNBS induced intestinal fibrosis ([4]; mCRAMP 5 mg/kg intracolonically): significantly reduces TNBS induced intestinal fibrosis
- histology score (H&E) ([4]; wild-type mice, p=0.03): significantly reduced histology score
